In patent US5690956A, “Hair care perming agent” (priority 1995, dated 1997):

Columns and labels:
disulfide bonds in hair [1] = conditions: laboratory setting, prior practice; cited from earlier work
[2] = test system: hair, especially the cuticle; conditions: elevated pH, usually pH 9-12; prior art; cited from earlier work
Water solubility of TCEP = format: physicochemical
[3] = Stability of TCEP (aqueous acidic media, air oxidation, temperature); format: physicochemical
disulfide bonds in hair [4] = experiment: Reduction (cleavage) of disulfide bonds in hair protein; format: biochemical, human
From the text: The extent of cleavage of disulfide bonds using thioglycollate depends on the concentration of the reducing agent and on the amount of mechanical stress applied to the hair shaft. In spite of the conditions used in performing a reduction of the disulfide bonds, in prior practice in a laboratory setting, no more than 65-70% of the protein cystine bonds in hair were disrupted. In the actual practice of hair perming, the reduction level is even lower, ranging between 19% and 43%. When using thioglycollate as a reducing agent, the optimal perming condition occurs using ambient temperatures and a 5% (w/v) solution of thioglycollate.
2) The reducing reactions are conducted under conditions of ambient or slightly elevated temperature in a mildly acidic buffer media ranging in a pH from 2.0-5.6 and with a TCEP concentration range of 5-10% w/v. The reaction occurs over a period of about 15 minutes.

human hosts = experiment: Human safety of the reducing agent
[5] = test system: hair, especially the cuticle; experiment: Damage to hair (cuticle); set-up: species or system human; conditions: vs sulfhydryl reducing agents in alkaline pH
[6] = test system: soluble proteins, such as antibodies; conditions: in the presence of 6M guanidine or 8M urea; cited from earlier work

## O=C(O)CS [thioglycollate, thioglycollic acid]
Disulfide bonds in hair [1]
  protein cystine bonds in hair disrupted (extent of reduction): 65-70%
[2]
  cuticle damage: severe cuticle damage

## Cl.O=C(O)CCP(CCC(=O)O)CCC(=O)O [TCEP, Tris-(2-carboxy-ethyl) phosphine hydrochloride]
Water solubility of TCEP
  solubility: ~310 mg/mL
[3]; air
  resistance to air oxidation: substantially resistant to air oxidation
[3]; aqueous acidic media
  stability in aqueous acidic media: stable in aqueous acidic media
[3]; fluctuations in temperature
  stability when exposed to fluctuations in temperature: very stable
Disulfide bonds in hair [4]
  reactivity toward other functional groups found in hair: essentially non-reactive
  reduction of some of the most stable disulfide bonds in hair: Selective and complete reduction
Disulfide bonds in hair [4]; acidic pH
  effectiveness in reducing disulfide bonds vs dithiothreitol, mercaptoethanol, or thioglycollic acid: more effective than traditional sulfhydryl reducing agents
Disulfide bonds in hair [4]; pH 2.0-5.6, TCEP 5-10% w/v, ambient or slightly elevated temperature
  period over which the reducing reaction occurs: about 15 minutes
Human hosts
  toxicity to human hosts / safety profile: not toxic to human hosts
[5]
  damage to hair, especially the cuticle: lower instance of damaged hair
[6]
  function as reducing agent on soluble proteins: function well
